# In patent US11845736B2, “Prodrugs of MDMA, MDA, and derivatives thereof” (EmpathBio, Inc., priority 2021, dated 2023):
# Read-outs that look alike come from different tables or passages of the source.
# Legend:
# [1] = Compound solubility in FaSSIF
# [2] = Compound mouse plasma stability
# [3] = Compound chemical stability PBS (pH 6.5)
# [4] = Compound chemical stability SGF without pepsin
# [5] = Compound chemical stability SGF with pepsin
# [6] = healthy human subjects, cited from earlier work
# [7] = cited from earlier work; for Cmax / Tmax: healthy human subjects
smiles,measurement,setting,value
"Cc1oc(=O)oc1CN(C)[C@H](C)Cc1ccc2c(c1)OCO2 [Compound 9, (R)-4-(((1-(benzo[d][1,3]dioxol-5-yl)propan-2-yl)(methyl)amino)methyl)-5-methyl-1,3-dioxol-2-one]",solubility,[1],223 µM
same,% Remaining,[2]; 0 minutes,100%
same,% Remaining,[2]; 15 minutes,70%
same,% Remaining,[2]; 30 minutes,22%
same,% Remaining,[2]; 60 minutes,4%
same,% Remaining,"[3]; PBS pH 6.5, 0 minutes",100%
same,% Remaining,"[3]; PBS pH 6.5, 30 minutes",83%
same,% Remaining,"[3]; PBS pH 6.5, 60 minutes",75%
same,% Remaining,"[3]; PBS pH 6.5, 120 minutes",55%
same,% Remaining,"[3]; PBS pH 6.5, 240 minutes",32%
same,% Remaining,[4]; 0 minutes,1000%
same,% Remaining,[4]; 30 minutes,94%
same,% Remaining,[4]; 60 minutes,89%
same,% Remaining,[4]; 120 minutes,83%
same,% Remaining,[4]; 240 minutes,72%
same,% Remaining,[5]; 0 minutes,100%
same,% Remaining,[5]; 30 minutes,97%
same,% Remaining,[5]; 60 minutes,92%
same,% Remaining,[5]; 120 minutes,87%
same,% Remaining,[5]; 240 minutes,71%
"CC(OC(=O)N(C)C(C)Cc1ccc2c(c1)OCO2)OC(=O)C(C)(C)C (stereo not shown) [Compound 3, 1-(((1-(benzo[d][1,3]dioxol-5-yl)propan-2-yl)(methyl)carbamoyl)oxy)ethyl pivalate]",solubility,[1],101 µM
same,% Remaining,[2]; 0 minutes,100%
same,% Remaining,[2]; 15 minutes,0.0%
same,% Remaining,[2]; 30 minutes,0.0%
same,% Remaining,[2]; 60 minutes,0.0%
same,% Remaining,[2]; 120 minutes,0.0%
same,% Remaining,"[3]; PBS pH 6.5, 0 minutes",100.00%
same,% Remaining,"[3]; PBS pH 6.5, 30 minutes",103.45%
same,% Remaining,"[3]; PBS pH 6.5, 60 minutes",107.91%
same,% Remaining,"[3]; PBS pH 6.5, 120 minutes",105.56%
same,% Remaining,"[3]; PBS pH 6.5, 240 minutes",96.60%
same,% Remaining,[4]; 0 minutes,100.00%
same,% Remaining,[4]; 30 minutes,97.82%
same,% Remaining,[4]; 60 minutes,97.35%
same,% Remaining,[4]; 120 minutes,93.65%
same,% Remaining,[4]; 240 minutes,94.12%
same,% Remaining,[5]; 0 minutes,100.00%
same,% Remaining,[5]; 30 minutes,106.44%
same,% Remaining,[5]; 60 minutes,108.51%
same,% Remaining,[5]; 120 minutes,103.98%
same,% Remaining,[5]; 240 minutes,106.17%
"CC(Cc1ccc2c(c1)OCO2)NC(=O)CN (stereo not shown) [Compound 5, 2-amino-N-(1-(benzo[d][1,3]dioxol-5-yl)propan-2-yl)acetamide]",solubility,[1],304 µM
same,% Remaining,[2]; 0 minutes,100.00%
same,% Remaining,[2]; 15 minutes,103.33%
same,% Remaining,[2]; 30 minutes,87.64%
same,% Remaining,[2]; 60 minutes,90.78%
same,% Remaining,[2]; 120 minutes,83.06%
same,% Remaining,"[3]; PBS pH 6.5, 0 minutes",100.00%
same,% Remaining,"[3]; PBS pH 6.5, 30 minutes",95.53%
same,% Remaining,"[3]; PBS pH 6.5, 60 minutes",97.09%
same,% Remaining,"[3]; PBS pH 6.5, 120 minutes",98.67%
same,% Remaining,"[3]; PBS pH 6.5, 240 minutes",105.87%
same,% Remaining,[4]; 0 minutes,100.00%
same,% Remaining,[4]; 30 minutes,101.17%
same,% Remaining,[4]; 60 minutes,91.48%
same,% Remaining,[4]; 120 minutes,95.49%
same,% Remaining,[4]; 240 minutes,100.41%
same,% Remaining,[5]; 0 minutes,100.00%
same,% Remaining,[5]; 30 minutes,99.68%
same,% Remaining,[5]; 60 minutes,105.84%
same,% Remaining,[5]; 120 minutes,94.42%
same,% Remaining,[5]; 240 minutes,91.97%
"Cc1oc(=O)oc1CN[C@H](C)Cc1ccc2c(c1)OCO2 [Compound 8, (R)-4-(((1-(benzo[d][1,3]dioxol-5-yl)propan-2-yl)amino)methyl)-5-methyl-1,3-dioxol-2-one]",solubility,[1],283 µM
same,% Remaining,[2]; 0 minutes,100%
same,% Remaining,[2]; 15 minutes,72%
same,% Remaining,[2]; 30 minutes,54%
same,% Remaining,[2]; 60 minutes,25%
same,% Remaining,[2]; 120 minutes,6%
same,% Remaining,"[3]; PBS pH 6.5, 0 minutes",100%
same,% Remaining,"[3]; PBS pH 6.5, 30 minutes",96%
same,% Remaining,"[3]; PBS pH 6.5, 60 minutes",93%
same,% Remaining,"[3]; PBS pH 6.5, 120 minutes",75%
same,% Remaining,"[3]; PBS pH 6.5, 240 minutes",72%
same,% Remaining,[4]; 0 minutes,100%
same,% Remaining,[4]; 30 minutes,97%
same,% Remaining,[4]; 60 minutes,94%
same,% Remaining,[4]; 120 minutes,90%
same,% Remaining,[4]; 240 minutes,86%
same,% Remaining,[5]; 0 minutes,100%
same,% Remaining,[5]; 30 minutes,103%
same,% Remaining,[5]; 60 minutes,98%
same,% Remaining,[5]; 120 minutes,96%
same,% Remaining,[5]; 240 minutes,92%
"CNC(C)Cc1ccc2c(c1)OCO2 (racemic) [MDMA, 3,4-methylenedioxymethamphetamine]",Cmax,[6]; 75 mg MDMA,130.9 ng/mL
same,T1/2 (elimination half-life),[6]; 75 mg MDMA,7.7 h
same,Tmax,[6]; 75 mg MDMA,1.8 h
same,Cmax,[6]; 125 mg MDMA,236.4 ng/mL
same,T1/2 (elimination half-life),[6]; 125 mg MDMA,8.6 h
same,Tmax,[6]; 125 mg MDMA,2.4 h
"C[C@H](Cc1ccc2c(c1)OCO2)NC(=O)OC(C)(C)C [Compound 6, tert-butyl(R)-(1-(benzo[d][1,3]dioxol-5-yl)propan-2-yl)carbamate]",solubility,[1],175 µM
same,% Remaining,[2]; 0 minutes,100%
same,% Remaining,[2]; 15 minutes,102%
same,% Remaining,[2]; 30 minutes,106%
same,% Remaining,[2]; 60 minutes,92%
same,% Remaining,[2]; 120 minutes,95%
same,% Remaining,"[3]; PBS pH 6.5, 0 minutes",100.00%
same,% Remaining,"[3]; PBS pH 6.5, 30 minutes",84.81%
same,% Remaining,"[3]; PBS pH 6.5, 60 minutes",93.60%
same,% Remaining,"[3]; PBS pH 6.5, 120 minutes",103.65%
same,% Remaining,"[3]; PBS pH 6.5, 240 minutes",91.66%
same,% Remaining,[4]; 0 minutes,100.00%
same,% Remaining,[4]; 30 minutes,87.96%
same,% Remaining,[4]; 60 minutes,77.20%
same,% Remaining,[4]; 120 minutes,57.49%
same,% Remaining,[4]; 240 minutes,28.57%
same,% Remaining,[5]; 0 minutes,100.00%
same,% Remaining,[5]; 30 minutes,85.17%
same,% Remaining,[5]; 60 minutes,79.89%
same,% Remaining,[5]; 120 minutes,56.87%
same,% Remaining,[5]; 240 minutes,31.48%
"CCOC(=O)NC(C)Cc1ccc2c(c1)OCO2 (stereo not shown) [Compound 2, ethyl(1-(benzo[d][1,3]dioxol-5-yl)propan-2-yl)carbamate]",solubility,[1],313 µM
same,% Remaining,[2]; 0 minutes,100.00%
same,% Remaining,[2]; 15 minutes,101.77%
same,% Remaining,[2]; 30 minutes,86.60%
same,% Remaining,[2]; 60 minutes,89.02%
same,% Remaining,[2]; 120 minutes,84.42%
same,% Remaining,"[3]; PBS pH 6.5, 0 minutes",100.00%
same,% Remaining,"[3]; PBS pH 6.5, 30 minutes",89.05%
same,% Remaining,"[3]; PBS pH 6.5, 60 minutes",87.87%
same,% Remaining,"[3]; PBS pH 6.5, 120 minutes",91.21%
same,% Remaining,"[3]; PBS pH 6.5, 240 minutes",88.66%
same,% Remaining,[4]; 0 minutes,100.00%
same,% Remaining,[4]; 30 minutes,102.53%
same,% Remaining,[4]; 60 minutes,101.64%
same,% Remaining,[4]; 120 minutes,90.45%
same,% Remaining,[4]; 240 minutes,99.40%
same,% Remaining,[5]; 0 minutes,100.00%
same,% Remaining,[5]; 30 minutes,100.95%
same,% Remaining,[5]; 60 minutes,97.74%
same,% Remaining,[5]; 120 minutes,98.18%
same,% Remaining,[5]; 240 minutes,99.08%
"CCOC(=O)N(C)C(C)Cc1ccc2c(c1)OCO2 (stereo not shown) [Compound 1, ethyl(1-(benzo[d][1,3]dioxol-5-yl)propan-2-yl)(methyl)carbamate]",solubility,[1],309 µM
same,% Remaining,[2]; 0 minutes,100.00%
same,% Remaining,[2]; 15 minutes,108.51%
same,% Remaining,[2]; 30 minutes,87.67%
same,% Remaining,[2]; 60 minutes,98.49%
same,% Remaining,[2]; 120 minutes,89.31%
same,% Remaining,"[3]; PBS pH 6.5, 0 minutes",100.00%
same,% Remaining,"[3]; PBS pH 6.5, 30 minutes",90.48%
same,% Remaining,"[3]; PBS pH 6.5, 60 minutes",90.36%
same,% Remaining,"[3]; PBS pH 6.5, 120 minutes",89.59%
same,% Remaining,"[3]; PBS pH 6.5, 240 minutes",90.28%
same,% Remaining,[4]; 0 minutes,100.00%
same,% Remaining,[4]; 30 minutes,103.81%
same,% Remaining,[4]; 60 minutes,101.90%
same,% Remaining,[4]; 120 minutes,103.81%
same,% Remaining,[4]; 240 minutes,104.29%
same,% Remaining,[5]; 0 minutes,100.00%
same,% Remaining,[5]; 30 minutes,101.86%
same,% Remaining,[5]; 60 minutes,98.61%
same,% Remaining,[5]; 120 minutes,103.31%
same,% Remaining,[5]; 240 minutes,100.50%
CC(N)Cc1ccc2c(c1)OCO2 (stereo not shown) [MDA],Cmax,[7]; 75 mg MDA,7.8 ng/mL
same,Tmax,[7]; 75 mg MDMA,5 h
same,Cmax,[7]; 125 mg MDA,13.7 ng/mL
same,Tmax,[7]; 125 mg MDMA,7 h
same,MDA formation rate constant,[7]; estimated for both MDMA doses,about 0.75 h
"CC(Cc1ccc2c(c1)OCO2)N(C)C(=O)CN (stereo not shown) [Compound 4, 2-amino-N-(1-(benzo[d][1,3]dioxol-5-yl)propan-2-yl)-N-methylacetamide]",solubility,[1],291 µM
same,% Remaining,[2]; 0 minutes,100.00%
same,% Remaining,[2]; 15 minutes,102.99%
same,% Remaining,[2]; 30 minutes,83.50%
same,% Remaining,[2]; 60 minutes,94.51%
same,% Remaining,[2]; 120 minutes,87.42%
same,% Remaining,"[3]; PBS pH 6.5, 0 minutes",100.00%
same,% Remaining,"[3]; PBS pH 6.5, 30 minutes",88.84%
same,% Remaining,"[3]; PBS pH 6.5, 60 minutes",92.54%
same,% Remaining,"[3]; PBS pH 6.5, 120 minutes",92.04%
same,% Remaining,"[3]; PBS pH 6.5, 240 minutes",92.48%
same,% Remaining,[4]; 0 minutes,100.00%
same,% Remaining,[4]; 30 minutes,94.49%
same,% Remaining,[4]; 60 minutes,96.72%
same,% Remaining,[4]; 120 minutes,96.67%
same,% Remaining,[4]; 240 minutes,96.46%
same,% Remaining,[5]; 0 minutes,100.00%
same,% Remaining,[5]; 30 minutes,108.06%
same,% Remaining,[5]; 60 minutes,98.50%
same,% Remaining,[5]; 120 minutes,106.18%
same,% Remaining,[5]; 240 minutes,103.88%
"C[C@H](Cc1ccc2c(c1)OCO2)N(C)C(=O)OC(C)(C)C [Compound 7, tert-butyl(R)-(1-(benzo[d][1,3]dioxol-5-yl)propan-2-yl)(methyl)carbamate]",solubility,[1],257 µM
same,% Remaining,[2]; 0 minutes,100%
same,% Remaining,[2]; 15 minutes,101%
same,% Remaining,[2]; 30 minutes,92%
same,% Remaining,[2]; 60 minutes,83%
same,% Remaining,[2]; 120 minutes,92%
same,% Remaining,"[3]; PBS pH 6.5, 0 minutes",100.00%
same,% Remaining,"[3]; PBS pH 6.5, 30 minutes",94.54%
same,% Remaining,"[3]; PBS pH 6.5, 60 minutes",105.49%
same,% Remaining,"[3]; PBS pH 6.5, 120 minutes",105.72%
same,% Remaining,"[3]; PBS pH 6.5, 240 minutes",102.75%
same,% Remaining,[4]; 0 minutes,100.00%
same,% Remaining,[4]; 30 minutes,89.90%
same,% Remaining,[4]; 60 minutes,73.62%
same,% Remaining,[4]; 120 minutes,61.79%
same,% Remaining,[4]; 240 minutes,30.52%
same,% Remaining,[5]; 0 minutes,100.00%
same,% Remaining,[5]; 30 minutes,74.97%
same,% Remaining,[5]; 60 minutes,63.49%
same,% Remaining,[5]; 120 minutes,56.42%
same,% Remaining,[5]; 240 minutes,28.25%
